Values quoted from earlier work, collected in patent publication US12295935B2, “Method for therapeutic treatment of rosacea” (Sol-Gel Technologies Ltd., priority 2019, dated 2025).

Tested on: rosacea
Settings: BPO as sole active agent

**Q.** Which response of lesions does the source give for `O=C(OOC(=O)c1ccccc1)c1ccccc1` [BPO, Benzoyl peroxide] here?
**A.** unresponsive
